According to the supplement of paper PMC8671470:

What was measured:
Conditions in all cases: 72 h
HL-60 [1] = test: area under dose-response curve (viability, 1 nM-10 uM) (fraction (0-1)); higher = more sensitive
Outline: (§1)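 HL-60 cells in RPMI 1640 with 10% FBS were rescreened against the full library on 384-well plates at five tenfold concentrations, 1–10,000 nM, in duplicate. Each screen was run with DMSO or 100 nM of one of three metabolic inhibitors, for 72 h at 37 °C, 5% CO2. Viability was read by CellTiter-Glo and normalised to DMSO and 10 μM proteasome-inhibitor wells. Where given, area under the curve came from four-parameter log-logistic fits (drc, PharmacoGx).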

ML-2 [2] = test: cell viability (% survival relative to DMSO control, bortezomib = 0%); higher = less cytotoxic
Outline: (§2)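 Fifteen myeloid leukaemia cell lines (10 AML, 5 CML) were seeded at a density titrated to the linear growth range into 384-well plates pre-printed with compounds at 1, 10, 100, 1000 or 10000 nM in duplicate. Plates were incubated for 72 h at 37 °C with 5% CO2. Viability was then read by CellTiter-Glo luminescence. Each value is percent survival averaged over the duplicates, with vehicle set to 100% and a 10 µM positive control to 0%.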

MV4-11 [3] = test: as above
Outline: as §2

MOLM-13 [4] = test: as above
Outline: as §2

HEL [5] = test: as above
Outline: as §2

LAMA-84 [6] = test: as above
Outline: as §2

K-562 [7] = test: as above
Outline: as §2

KG-1 [8] = test: as above
Outline: as §2

KCL-22 [9] = test: as above
Outline: as §2

HL-60 [10] = test: as above
Outline: as §2

BV-173 [11] = test: as above
Outline: as §2

SHI-1 [12] = test: as above
Outline: as §2

HL-60 [13] = test: cell viability (% survival relative to DMSO control); higher = less cytotoxic
Outline: as §1

ML-2 [14] = system: ML-2
Outline: (§3)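 Fifteen myeloid leukaemia lines in RPMI 1640 were treated for 72 h at 37 °C and 5% CO2 with five tenfold doses from 1 to 10,000 nM, in duplicate. ATP luminescence was normalised to vehicle and to a positive control at 10 µM, then fitted with a four-parameter log-logistic model. The IC50 came from these fits.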

MV4-11 [15] = system: MV4-11
Outline: as §3

MOLM-13 [16] = system: MOLM-13
Outline: as §3

HEL [17] = system: HEL
Outline: as §3

KU-812 = system: KU-812
Outline: as §3

LAMA-84 [18] = system: LAMA-84
Outline: as §3

K-562 [19] = system: K-562
Outline: as §3

Mono-Mac-6 = system: Mono-Mac-6
Outline: as §3

KG-1 [20] = system: KG-1
Outline: as §3

NOMO-1 = system: NOMO-1
Outline: as §3

KCL-22 [21] = system: KCL-22
Outline: as §3

HL-60 [22] = system: HL-60
Outline: as §3

BV-173 [23] = system: BV-173
Outline: as §3

SHI-1 [24] = system: SHI-1
Outline: as §3

THP-1 = system: THP-1
Outline: as §3

Cn1c2cc(S(C)=O)sc2c2cnn(Cc3cccc(N)c3)c(=O)c21 (stereo not drawn) [TEPP-46]
Conditions	area under dose-response curve, co-treatment: AZD3965 100 nM	area under dose-response curve, co-treatment: DMSO vehicle	area under dose-response curve, co-treatment: GSK2194069 100 nM	area under dose-response curve, co-treatment: pictilisib 100 nM	cell viability, 1 nM [%]	cell viability, 10 nM [%]	cell viability, 100 nM [%]	cell viability, 1000 nM [%]	cell viability, 10000 nM [%]
BV-173 [11]	–	–	–	–	108	84.1	102	106	76.8
HEL [5]	–	–	–	–	118	96.2	100	99.1	84
HL-60 [1]	< 0.0301	< 0.0301	< 0.0301	< 0.0301	–	–	–	–	–
HL-60 [10]	–	–	–	–	104	81.9	98.8	113	105
K-562 [7]	–	–	–	–	112	92.1	101	111	81.8
KCL-22 [9]	–	–	–	–	109	96.8	97.2	111	87.8
KG-1 [8]	–	–	–	–	116	99.9	102	93.5	85.1
LAMA-84 [6]	–	–	–	–	106	98.2	98.2	97.4	90.6
ML-2 [2]	–	–	–	–	116	98.9	102	108	91.7
MOLM-13 [4]	–	–	–	–	136	92.9	91.9	123	94.3
MV4-11 [3]	–	–	–	–	105	100	94.1	103	69.3
SHI-1 [12]	–	–	–	–	125	101	105	96.5	95.3

cell viability [%], HL-60 [13]
Conditions	0.001 µM	0.01 µM	0.1 µM	1 µM	10 µM
co-treatment: AZD3965 100 nM	98.7	108	113	102	100
co-treatment: DMSO vehicle	99.6	103	104	104	107
co-treatment: GSK2194069 100 nM	97.7	106	97.1	104	101
co-treatment: pictilisib 100 nM	87.3	106	112	98.02	95.3

Conditions	IC50 (cell viability) [µM]
BV-173 [23]	> 10
HEL [17]	> 10
HL-60 [22]	> 10
K-562 [19]	> 10
KCL-22 [21]	> 10
KG-1 [20]	> 10
KU-812	> 10
LAMA-84 [18]	> 10
ML-2 [14]	> 10
MOLM-13 [16]	> 10
MV4-11 [15]	> 10
Mono-Mac-6	> 10
NOMO-1	> 10
SHI-1 [24]	> 10
THP-1	> 10

CCCCCCCCCCCCCCOc1ccc(C(=O)O)o1 [TOFA]
Conditions	area under dose-response curve, co-treatment: AZD3965 100 nM	area under dose-response curve, co-treatment: DMSO vehicle	area under dose-response curve, co-treatment: GSK2194069 100 nM	area under dose-response curve, co-treatment: pictilisib 100 nM	cell viability, 1 nM [%]	cell viability, 10 nM [%]	cell viability, 100 nM [%]	cell viability, 1000 nM [%]	cell viability, 10000 nM [%]
BV-173 [11]	–	–	–	–	110	104	101	90.1	103
HEL [5]	–	–	–	–	108	91.8	103	103	83.8
HL-60 [1]	< 0.0301	< 0.0301	< 0.0301	0.114	–	–	–	–	–
HL-60 [10]	–	–	–	–	75.1	83.8	108	109	85.4
K-562 [7]	–	–	–	–	100	93.4	92	108	114
KCL-22 [9]	–	–	–	–	94.2	90.6	108	107	40.4
KG-1 [8]	–	–	–	–	95.8	103	116	97.5	93.2
LAMA-84 [6]	–	–	–	–	106	105	102	103	90.1
ML-2 [2]	–	–	–	–	101	92.8	110	101	108
MOLM-13 [4]	–	–	–	–	102	91.7	98.8	82.7	87
MV4-11 [3]	–	–	–	–	87.6	87.9	104	98.4	96.2
SHI-1 [12]	–	–	–	–	113	85.6	110	98.9	89.9

cell viability [%], HL-60 [13]
Conditions	0.001 µM	0.01 µM	0.1 µM	1 µM	10 µM
co-treatment: AZD3965 100 nM	96.4	101	104	97.5	100
co-treatment: DMSO vehicle	98.8	102	98.8	98.5	97.592
co-treatment: GSK2194069 100 nM	81.3	96.3	84.6	95.9	94.01
co-treatment: pictilisib 100 nM	80.5	100	94.5	107	2.06

Conditions	IC50 (cell viability) [µM]
BV-173 [23]	> 10
HEL [17]	> 10
HL-60 [22]	> 10
K-562 [19]	> 10
KCL-22 [21]	8.33
KG-1 [20]	> 10
KU-812	> 10
LAMA-84 [18]	> 10
ML-2 [14]	> 10
MOLM-13 [16]	> 10
MV4-11 [15]	> 10
Mono-Mac-6	> 10
NOMO-1	> 10
SHI-1 [24]	> 10
THP-1	> 10
